{"source": "paper PMC10464297", "about": "“Reevaluation of bromodomain ligands targeting BAZ2A” (Protein Science : A Publication of the Protein Society, 2023)", "key": {"PC3 spheroids": {"test_system": "PC3 spheroids", "assay": "Spheroid growth (3D), PC3", "format": "cell-based", "procedure": "Cell cultures, proliferation assay and spheroid gro wth […]\nstreptomycin and 2 m M L-glutamine. All cells were regularly tested for mycoplasma contamination. […]\nSpheroids were obtained by plating PC3 and 22Rv1 cells in low -adhesion round bottom 96 -well […]\n(§1) After seeding, the cells were centrifuged for 10 min at 1200 x g at 4°C. Spheroids were given 48 hours to form after seeding before adding the treatment or the carrier (0.1% DMSO). Medium supplemented with treatment/carrier was changed every 48 hours, for a total of 32 days for 22Rv1 and 16 days for PC3. Each spheroid was imaged in brightfield every day or every other day (after day 20), using a Leica DM IL microscope […]\n(§2) equipped with a Leica DFC450C digital camera. The area of each spheroid was measured using ImageJ and the average area for each condition was calculated. The growth rate was analysed using the segmental linear regression algorithm of GraphPad Prism. The appropriateness of the model was evaluated by considering the R square values and the Replicates test (Suppl. Table 6). […]"}, "22Rv1 spheroids": {"test_system": "22Rv1 spheroids", "assay": "Spheroid growth (3D), 22Rv1", "format": "cell-based", "procedure": "Cell cultures, proliferation assay and spheroid gro wth\nPC3 and 22Rv1 cells were cultured in RPMI 1640 medium containing 10% FBS, 1% penicillin-streptomycin and 2 m M L-glutamine. All cells were regularly tested for mycoplasma contamination. […]\nas §1, with “Spheroids were obtained by plating PC3 and 22Rv1 cells in low -adhesion round bottom 96 -well plates. For 22Rv1, 2500 cells/well were seeded in 200 µl RPMI 1640; for PC3, 250 cells/well were seeded in 200 µl RPMI 1640 supplemented with 1.5% Matrigel. After” for “After”\nas §2"}, "PCa cells": {"test_system": "PCa cells", "assay": "RT-qPCR of genes affected by BAZ2A genetic ablation", "format": "cell-based", "details": "25 μM, 6 days, PC3 and 22Rv1", "procedure": "equipped with a Leica DFC450C digital camera. The area of each spheroid was measured using ImageJ and the average area for each condition was calculated. The growth rate was analysed using the segmental linear regression algorithm of GraphPad Prism. The appropriateness of the model was evaluated by considering the R square values and the Replicates test (Suppl. Table 6).\nCells were counted and plated in 6 well (for RNA extraction) or 96 well (for growth curve) at a […]\nand 4.5x10^3 cells/well for 22Rv1) and let attach overnight at 37°C, 5% CO2. […] The gene expression was analyzed after 6 days from the cells seeded in the 6 well, while the viability was analyzed in the same way as for the cells treated with the […]\nCells were previously counted and plated in 6 well at a fixed amount (60.000 cells/well for PC3; 135.000 cells/well for 22Rv1). The RNA was extracted using the phenol-chloroform method and its concentration was measured by Nano spectrophotometer. […]\nTotal protein content was extracted from cells transfected with siRNA B AZ2A or siRNA RLU C (negative control). […] Cells were lysed using RIPA buffer and protein concentration was determined by Bradford Reagent (Sigma-Aldrich), according to the manufacturer’s instructions. […]"}, "[1]": {"test_system": "panel of receptors, channels and transporters", "parameters": "method as in https://www.thesgc.org/chemical-probes/BAZ2-ICR", "details": "ref https://www.thesgc.org/chemical-probes/BAZ2-ICR; cited from earlier work"}, "TNBC cells": {"test_system": "TNBC cells", "parameters": "method as in Bevill et al., [2019]", "details": "single agent; ref Bevill et al., [2019]; cited from earlier work"}, "PCa cancer stem cells": {"test_system": "PCa cancer stem cells", "parameters": "method as in Peña‐Hernández et al., [2021]", "details": "ref Peña‐Hernández et al., [2021]; cited from earlier work"}, "[2]": {"details": "3D setting, GSK2801 25 μM, BAZ2‐ICR 25 μM, BI9564 20 μM"}}, "note": "Entries after “also recorded” stand apart in the source; their conditions may differ.", "data": [{"molecule": "Cn1cc(CCn2cnc(-c3cnn(C)c3)c2-c2ccc(C#N)cc2)cn1", "note": "[BAZ2‐ICR]", "values": [{"measurement": "effect on growth of PC3 spheroids", "setting": "PC3 spheroids; [2]", "value": "did not significantly affect PC3 spheroids"}, {"measurement": "slope2 (segmental linear regression of spheroid growth)", "setting": "PC3 spheroids; PC3 spheroids, 25 µM, after X0 = day 6", "value": 77288}, {"measurement": "slope1 (segmental linear regression of spheroid growth)", "setting": "PC3 spheroids; PC3 spheroids, 25 µM, before X0 = day 6", "value": 62282}, {"measurement": "effect on growth of 22Rv1 spheroids", "setting": "22Rv1 spheroids; [2]", "value": "similarly affect the growth of 22Rv1 cells; also recorded: interestingly impacting those deriving from 22Rv1 cells"}, {"measurement": "slope2 (segmental linear regression of spheroid growth)", "setting": "22Rv1 spheroids; 22Rv1 spheroids, 25 µM, after X0 = day 9", "value": 10618}, {"measurement": "slope1 (segmental linear regression of spheroid growth)", "setting": "22Rv1 spheroids; 22Rv1 spheroids, 25 µM, before X0 = day 9", "value": 17642}, {"measurement": "transcription of a set of genes affected by BAZ2A genetic ablation", "setting": "PCa cells", "value": "did not comparably alter the transcription"}, {"measurement": "profile on panel of receptors, channels and transporters", "setting": "[1]", "value": "clean"}, {"measurement": "effect on TNBC cells", "setting": "TNBC cells", "value": "did not affect TNBC cells"}, {"measurement": "efficacy on PCa cancer stem cells", "setting": "PCa cancer stem cells", "value": "effective on PCa cancer stem cells"}]}]}
